Patent publication US20050287666A1, “Cell culture medium comprising transition metals or trace elements” (priority 2004, published 2005)
Entries after “also recorded” stand apart in the source; their conditions may differ. Read-outs that look alike come from different tables or passages of the source.

Assays:
Assay type in all cases: cell-based, human
PER.C6 cells [1] = assay: PER.C6 growth in AEM supplemented with TEM, TEM without zinc or zinc alone (Example 1 and preliminary work); settings: zinc evaluated separately
From the text: A trace element mix (TEM) was created and used in various test protocols. […] The following media supplements were compared: • 1) TEM. • 2) TEM without zinc. • 3) Zinc alone at the TEM concentration. • 4) These supplements were each added to individual bottles of AEM at 1×, 3×, 5× and 10×. The conditions were then monitored by observing PER.C6 growth. […] Two of the components in TEM, Cu and Ni would individual be toxic at the 10× levels. These levels of trace elements would have been observed in the preliminary variable observations. Thus it was decided that total trace element concentrations were not responsible for the deleterious effects observed.

PER.C6 cells [2] = assay: Lag in the subsequent culture when PER.C6 cells are passaged from overgrown high-density cultures in AEM; settings: for high density culturing / passaging of cells from high-density cultures: PER.C6 cells in AEM, cultures above 2×10^6 vc/mL
PER.C6 cells [3] = assay: PER.C6 cell growth after adding cobalt, nickel and manganese to AEM supplemented with TEM-2 (Example 5, FIG. 04)
PER.C6 cells [4] = assay: PER.C6 cell growth in AEM with single trace elements added at low concentration (Example 2, FIG. 01); settings: for effect on PER.C6 cell growth: element added singly to AEM: nickel (nitrate) 0.004 mg/L, cobalt (chloride) 0.001 mg/L, manganese (chloride) 0.028 mg/L, copper (chloride) 0.013 mg/L, compared to control

## [Zn] [Zinc]
PER.C6 cells [1]
  overall cell growth: improve overall cell growth
PER.C6 cells [2]
  high density culturing / passaging of cells from high-density cultures: consistent high density culturing
PER.C6 cells [2]; passaged from overgrown day 5 cultures, AEM
  lag in the subsequent culture: did not lag

## [Cl][Co][Cl] [cobalt, cobalt (chloride)]
PER.C6 cells [3]
  effect on PER.C6 cell growth performance: no effect

## [Cl][Cu][Cl] [copper, copper (chloride)]
PER.C6 cells [4]; 0.013 mg/L copper in AEM, all other cultures entered lag phase after day four or five
  duration of log growth phase: continued in the log growth phase through day six
PER.C6 cells [4]
  effect on PER.C6 cell growth: best results of all conditions tested; also recorded: extends log phase growth
PER.C6 cells [4]; listed as Copper
  effect on PER.C6 cell growth: increase growth
PER.C6 cells [2]
  high density culturing / passaging of cells from high-density cultures: does not improve passaging

## [Cl][Mn][Cl] [manganese, manganese (chloride)]
PER.C6 cells [4]
  effect on PER.C6 cell growth: inhibits; also recorded: individually toxic
PER.C6 cells [3]; added to AEM supplemented with TEM-2, same concentrations as in example 2
  effect on PER.C6 cell growth performance: no effect
